According to PubChem BioAssay (NCI):
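Here, GI50 denotes the concentration required for 50% inhibition of growth. The concentration for full growth arrest is given as TGI.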

Key:
Assay in all cases: NCI tumour cell line growth inhibition, 384-well format; in the data active = GI50 below about 0.43 µM; inactive = the rest
[1] = tested on: U251 glioblastoma
[2] = tested on: HOP-62 NSCLC
[3] = tested on: HCT-116 colon
[4] = tested on: TK-10 renal
[5] = tested on: RPMI-8226 leukemia
[6] = tested on: HCT-15 colon
[7] = tested on: HOP-92 NSCLC
[8] = tested on: BT-549 breast
[9] = tested on: PC-3 prostate
[10] = tested on: KM12 colon
[11] = tested on: HT29 colon
[12] = tested on: UACC-62 melanoma
[13] = tested on: SNB-75 CNS
[14] = tested on: SK-MEL-5 melanoma
[15] = tested on: MDA-MB-468 breast
[16] = tested on: MCF7 breast
[17] = tested on: OVCAR-4 ovarian
[18] = tested on: HCC-2998 colon
[19] = tested on: HL-60(TB) leukemia
[20] = tested on: SF-268 CNS
[21] = tested on: M14 melanoma
[22] = tested on: 786-0 renal
[23] = tested on: NCI-H226 lung
[24] = tested on: MALME-3M melanoma
[25] = tested on: LOX IMVI melanoma
[26] = tested on: DU-145 prostate
[27] = tested on: IGROV1 ovarian
[28] = tested on: SNB-19 CNS
[29] = tested on: SK-MEL-28 melanoma
[30] = tested on: CAKI-1 renal
[31] = tested on: A549 NSCLC
[32] = tested on: SW-620 colon
[33] = tested on: ACHN renal
[34] = tested on: UACC-257 melanoma
[35] = tested on: RXF 393 renal
[36] = tested on: EKVX NSCLC
[37] = tested on: T-47D breast
[38] = tested on: UO-31 renal
[39] = tested on: A498 renal
[40] = tested on: NCI-H460 NSCLC
[41] = tested on: OVCAR-5 ovarian
[42] = tested on: SR leukemia
[43] = tested on: SK-OV-3 ovarian
[44] = tested on: NCI-H23 lung
[45] = tested on: SF-539 CNS
[46] = tested on: NCI-H322M lung
[47] = tested on: HS 578T breast
[48] = tested on: MDA-MB-231 breast
[49] = tested on: CCRF-CEM leukemia
[50] = tested on: OVCAR-3 ovarian
[51] = tested on: COLO 205 colon
[52] = tested on: MOLT-4 leukemia
[53] = tested on: NCI-H522 lung
[54] = tested on: SF-295 CNS
[55] = tested on: NCI/ADR-RES ovarian
[56] = tested on: OVCAR-8 ovarian
[57] = tested on: SN12C renal

CC(=O)c1nc(-c2ccc(C[C@@H](CNC(=O)CN(C)C)NC(=O)c3ccc(OC(C)C)c(Cl)c3)cc2)cn1C
20.4 µM: TGI [27]
0.0515 µM: TGI [21]
1.18 µM: TGI [14]
25.1 µM: TGI [17]
7.5 µM: TGI [29]
17.9 µM: TGI [12]
18.2 µM: TGI [7] | TGI [16]
active: GI50 [1] 0.0162 µM | GI50 [2] 0.0414 µM | GI50 [3] 0.0341 µM | GI50 [5] 0.0213 µM | GI50 [6] 0.0471 µM | GI50 [8] 0.0258 µM | GI50 [9] 0.0314 µM | GI50 [10] 0.0139 µM | GI50 [11] 0.013 µM | GI50 [12] 0.0161 µM | GI50 [13] 0.0558 µM | GI50 [14] 0.0254 µM | GI50 [16] 0.0601 µM | GI50 [18] 0.0181 µM | GI50 [19] 0.0149 µM | GI50 [20] 0.0123 µM | GI50 [21] 0.0174 µM | GI50 [22] 0.0184 µM | GI50 [24] 0.0613 µM | GI50 [25] 0.0628 µM | GI50 [26] 0.0169 µM | GI50 [27] 0.0541 µM | GI50 [28] 0.0145 µM | GI50 [30] 0.0454 µM | GI50 [31] 0.0367 µM | GI50 [32] 0.0473 µM | GI50 [34] 0.0683 µM | GI50 [35] 0.0192 µM | GI50 [36] 0.0241 µM | GI50 [37] 0.0227 µM | GI50 [39] 0.039 µM
0.0429 µM: TGI [5]
20.6 µM: TGI [32]
0.029 µM: TGI [19]
16.1 µM: TGI [6]
21.9 µM: TGI [4]
6.86 µM: TGI [18]
0.06 µM: TGI [11]
16.9 µM: TGI [1]
21.5 µM: TGI [28]
15.8 µM: TGI [13]
24.6 µM: TGI [23]
0.0295 µM: TGI [15]
14 µM: TGI [22]
13.6 µM: TGI [8]
10.9 µM: TGI [35]
15.9 µM: TGI [26]
17.3 µM: TGI [36]
15.1 µM: TGI [3]
19.1 µM: TGI [9]
1.7 µM: TGI [24]
19.8 µM: TGI [10]
13.1 µM: TGI [37]
16.5 µM: TGI [30] | TGI [31]
23.2 µM: TGI [33]
18 µM: TGI [25]
1.76 µM: TGI [34]
inactive: GI50 [4] 10.2 µM | GI50 [7] 1.82 µM | GI50 [17] 12.5 µM | GI50 [23] 12.2 µM | GI50 [29] 1.13 µM | GI50 [33] 11 µM | GI50 [38] 0.823 µM
20.9 µM: TGI [38]
0.0439 µM: TGI [20]
20.7 µM: TGI [2]
19.4 µM: TGI [39]

COC(=O)N[C@@H](C)CNc1nccc(-c2cn(C(C)C)nc2-c2cc(Cl)cc(NS(C)(=O)=O)c2F)n1
> 76.8 µM: TGI [32]
6.91 µM: TGI [19]
inactive: GI50 [1] 17.2 µM | GI50 [40] 32.5 µM | GI50 [41] 33.2 µM | GI50 [42] 6.45 µM | GI50 [2] 61.9 µM | GI50 [3] 1.92 µM | GI50 [4] 20.7 µM | GI50 [5] > 100 µM | GI50 [43] 0.806 µM | GI50 [6] 9.03 µM | GI50 [7] 7.13 µM | GI50 [8] 38.1 µM | GI50 [9] 70.9 µM | GI50 [10] 36.5 µM | GI50 [44] 4.15 µM | GI50 [45] 43.3 µM | GI50 [46] 6.15 µM | GI50 [47] 14.7 µM | GI50 [48] 3.17 µM | GI50 [49] 42.2 µM | GI50 [50] 48.8 µM | GI50 [13] 14.8 µM | GI50 [52] 29.6 µM | GI50 [15] 11.5 µM | GI50 [16] > 100 µM | GI50 [53] 3.91 µM | GI50 [17] > 100 µM | GI50 [18] 11.9 µM | GI50 [19] 2.06 µM | GI50 [20] > 84.8 µM | GI50 [54] 97.6 µM | GI50 [55] > 100 µM | GI50 [22] 7.06 µM | GI50 [23] 37 µM | GI50 [25] 0.498 µM | GI50 [56] 38.2 µM | GI50 [26] 6.7 µM | GI50 [27] 0.929 µM | GI50 [28] > 100 µM | GI50 [30] 0.728 µM | GI50 [31] 16.3 µM | GI50 [32] 6.22 µM | GI50 [33] 3.54 µM | GI50 [57] 14.9 µM | GI50 [35] 6.32 µM | GI50 [36] 13.8 µM | GI50 [37] > 20 µM | GI50 [38] 6.96 µM | GI50 [39] 1.13 µM
> 100 µM: TGI [40] | TGI [41] | TGI [2] | TGI [4] | TGI [5] | TGI [43] | TGI [6] | TGI [7] | TGI [8] | TGI [9] | TGI [10] | TGI [44] | TGI [45] | TGI [49] | TGI [50] | TGI [13] | TGI [52] | TGI [15] | TGI [16] | TGI [17] | TGI [20] | TGI [54] | TGI [55] | TGI [23] | TGI [56] | TGI [26] | TGI [27] | TGI [28] | TGI [33] | TGI [57] | TGI [36] | TGI [37] | TGI [38] | TGI [39]
97.9 µM: TGI [53]
> 61.2 µM: TGI [25]
active: GI50 [11] < 0.01 µM | GI50 [12] < 0.01 µM | GI50 [51] < 0.01 µM | GI50 [21] < 0.01 µM | GI50 [24] < 0.01 µM | GI50 [29] < 0.01 µM
40.8 µM: TGI [47]
40.2 µM: TGI [48]
23.6 µM: TGI [11]
34.9 µM: TGI [35]
< 0.01 µM: TGI [12] | TGI [24] | TGI [29]
> 47.9 µM: TGI [30]
> 71.9 µM: TGI [3]
> 92.6 µM: TGI [31]
65.9 µM: TGI [1]
39.7 µM: TGI [18]
> 73.3 µM: TGI [22]
20.6 µM: TGI [42]
> 95.8 µM: TGI [46]
< 0.0175 µM: TGI [21]
